We go through 29 sequences from the supplement of paper PMC11208160.
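Note: IS621 bridge recombinase in Escherichia coli cells against a fixed T5 target plasmid.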

A short description of this data set: recombinant UMI read abundance after kanamycin selection (control-corrected) (log10(CPM+1)); higher = more efficient recombination; extreme values may be limits of the assay; sequences stand for … in AGTGCAGAGAAAATCGGCCAGTTTTCTCTGCCTGCAGTCCGCATGCCGTGGGACCCCTTGGGTTCTAACCTGTTGCCTAGATTTATGCAGCGGACTGCCTTTCTCCCAAAGTGATAAACCGG…AGGTTGGTTTCACT; site = the 11-nt donor. A digest of the protocol:
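Pooled Escherichia coli screen of donor and donor-binding-loop pairs for the IS621 bridge recombinase. Each pair sits with a 12-nt UMI on a plasmid carrying a promoterless kanamycin gene. The library was co-electroporated with a target plasmid encoding a fixed target and T7-inducible recombinase, then plated with IPTG (0.07 mM) plus kanamycin, or unselected, each in two replicates. Recombinant UMIs were PCR-amplified across the donor–target junction and sequenced. Counts became CPM, averaged over replicates, scaled by control-derived factors and reported as log10(CPM+1).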
As for “TGCTTGACATGGACCGGTTTTCCCGGTAATCCGTATTTGCT (site TCCTTGACTAG)”, the “recombinant UMI read abundance (log10)” value was found to be 0.0059.

Consider “TGCTTGACATGGACCGGTTTTCCCGGTAATCCGTATTTGCT (site TGCTTGACTAG)”, for which the “recombinant UMI read abundance (log10)” value was found to be 0.922. Under “TGCTTGACATGGACCGGTTTTCCCGGTAATCCGTATTTGCT (site TTCTTGACTAG)” stands 0.00367; under “TGCTTGACATGGACCGGTTTTCCCGGTAATCCGTATTTGGA (site TGCTTGACTTC)”, 0.355. The value for “TGCTTGGCATGGACCGGTTTTCCCGGTAATCCGTATTTGAA (site TGCTTGGCTTT)” was 0.485.

On to “TGCTTGGCATGGACCGGTTTTCCCGGTAATCCGTATTTGGT (site TGCTAGGCTAC)”, for which the “recombinant UMI read abundance (log10)” value is 0.011.

As for “TGCTTGGCATGGACCGGTTTTCCCGGTAATCCGTATTTGGT (site TGCTCGGCTAC)”, the “recombinant UMI read abundance (log10)” value is 0. The value for “TGCTTGGCATGGACCGGTTTTCCCGGTAATCCGTATTTGGT (site TGCTGGGCTAC)” was 0.155; that for “TGCTTGGCATGGACCGGTTTTCCCGGTAATCCGTATTTGGT (site TGCTTGGCTAC)” was 0.0115. Under “TGGAAAACATGGACCGGTTTTCCCGGTAATCCGTATTTGCA (site AGGAAGACTTG)” stands 0.218; under “TGGAAAACATGGACCGGTTTTCCCGGTAATCCGTATTTGCA (site TGGAAAACTTG)”, 2.24. The value for “TGGACAGCATGGACCGGTTTTCCCGGTAATCCGTATTTGCT (site TGGACAGCTAG)” was 2.26. For “TGGACATCATGGACCGGTTTTCCCGGTAATCCGTATTTGCT (site AGGACATCTAG)”, the “recombinant UMI read abundance (log10)” value came out at 1.44.

Turning to “TGGACATCATGGACCGGTTTTCCCGGTAATCCGTATTTGCT (site CGGACATCTAG)”, the “recombinant UMI read abundance (log10)” value is 2.04. Under “TGGACATCATGGACCGGTTTTCCCGGTAATCCGTATTTGCT (site GGGACATCTAG)” stands 0.348. Consider “TGGACATCATGGACCGGTTTTCCCGGTAATCCGTATTTGCT (site TGGACATCTAG)”, for which the “recombinant UMI read abundance (log10)” value is 1.69. With “TGGACCACATGGACCGGTTTTCCCGGTAATCCGTATTTGAT (site TGGACCACTAT)”, the “recombinant UMI read abundance (log10)” value came to 0.721. The value for “TGGAGCGCATGGACCGGTTTTCCCGGTAATCCGTATTTGGG (site TGGAGCGCTCC)” was 0.0132; that for “TGGAGTTCATGGACCGGTTTTCCCGGTAATCCGTATTTGTA (site TGGAGTTCTTA)” was 1.31; that for “TGGATTTCATGGACCGGTTTTCCCGGTAATCCGTATTTGCA (site TGGATTTCTTG)” was 0.673. “TGGCATCCATGGACCGGTTTTCCCGGTAATCCGTATTTGTT (site CGGAATCCTAA)”: the “recombinant UMI read abundance (log10)” value is 0. As to “TGGCATCCATGGACCGGTTTTCCCGGTAATCCGTATTTGTT (site TGGCATCCTAA)”, the “recombinant UMI read abundance (log10)” value stood at 0.165. With “TGGCCACCATGGACCGGTTTTCCCGGTAATCCGTATTTGTT (site TGGCCACCTAA)”, the “recombinant UMI read abundance (log10)” value is 0.0258. The value for “TGGCCAGCATGGACCGGTTTTCCCGGTAATCCGTATTTGGC (site TGGCCAGCTGC)” was 0. As to “TGGCCAGCATGGACCGGTTTTCCCGGTAATCCGTATTTGGC (site TGGCCCGCTGC)”, the “recombinant UMI read abundance (log10)” value stood at 0. Turning to “TGGCCAGCATGGACCGGTTTTCCCGGTAATCCGTATTTGGC (site TGGCCGGCTGC)”, the “recombinant UMI read abundance (log10)” value came to 0. “TGGCCAGCATGGACCGGTTTTCCCGGTAATCCGTATTTGGC (site TGGCCTGCTGC)”: the “recombinant UMI read abundance (log10)” value came to 0.017. Take “TGGCCGACATGGACCGGTTTTCCCGGTAATCCGTATTTGGC (site TGGCCGACTGC)”: the “recombinant UMI read abundance (log10)” value worked out at 0. The value for “TGGCCGACATGGACCGGTTTTCCCGGTAATCCGTATTTGGC (site TGGCCGCCTGC)” was 0.
